In patent US20200290950A1, “ALKAMIDE COMPOUNDS AND USES THEREOF” (NORTH CAROLINA STATE UNIVERSITY, priority 2017, published 2020):

How the values were obtained:
RBL-2H3 cells = experiment: Calcium assay, Fluo-4 (Example 3); format: cell-based, rat
Description: FIGS. 22A-22D. The alkamide fatty acid is necessary for inhibition of calcium influx. RBL-2H3 cells were plated overnight, incubated with Fluo-4 AM for 1 h, stimulated by 1 μM A23187 (FIG. 22A) or 5 ng/mL DNP-BSA (FIG. 22B) in the absence or presence of each alkamide, and fluorescence was read for 2 mins every 5 secs. Data are presented as the mean change in RFU of 4 experiments. Percent inhibition of calcium influx was calculated for A23187 (FIG. 22C) and DNP-BSA (FIG. 22D) stimulated cells at 2 mins. *P<0.05, **P<0.01, and ***P<0.001 one-way ANOVA with Dunnett's post hoc test compared to A15.
RBL-2H3 cells (1.0×10^5 cells) were incubated overnight in a 96 well black-wall clear bottom plate with or without IgE-DNP (0.1 μg/mL) at 37° C. with 5% CO2. The assay was performed using the Fluo-4 Direct™ Calcium Assay Kit according to the manufacturer's instruction. Briefly, cells were incubated with the Fluo-4 Direct calcium reagent loading solution for 30 minutes at 37° C. with 5% CO2 then 30 mins at room temperature. Prior to stimulation, the well baseline fluorescence was measured every 5 seconds over 1 minute using a BioTek Synergy HT microplate reader with 485/20 nm excitation and 528/20 nm emission filters. Cells were stimulated with 1 μM A23187 or 5 ng/mL DNP (IgE-DNP) in the absence or presence of each compound, and the fluorescence was measured every 5 seconds over 2 minutes. The change in fluorescence (ΔRT) was calculated as the sample fluorescence minus the baseline fluorescence for each well.

β-hexosaminidase = β-hexosaminidase enzyme activity in RBL-2H3 cell lysates with p-NAG; format: biochemical, rat; details: 1 hr at 37° C.
Description: FIG. 8. […] RBL-2H3 cells were lysed with 0.1% Triton X-100 to release β-hex from the cells. Lysates were incubated for 1 hr at 37° C. with the substrate, p-NAG, in combination with the indicated concentrations of A15 or vehicle only. The absorbance at 405 nm was measured using a microplate spectrophotometer. Results shown are the means±SEM of triplicate wells from a representative experiment out of 2 independent experiments. Statistical analysis was performed using a one-way ANOVA with Dunnett's post-hoc test.

BMMCs = experiment: Fluo-4 calcium assay, BMMCs; format: cell-based, mouse
Description: FIGS. 3A-3H. A15 inhibits calcium influx in RBL-2H3 cells and BMMCs. RBL-2H3 cells (FIGS. 3A-3D) and BMMCs (FIGS. 3E-3H) were plated and incubated overnight prior to treatments. For DNP-BSA treatments, overnight incubation also included 1 μg/mL IgE anti-DNP. Prior to stimulation, cells were washed and loaded with the fluorescent, calcium-sensitive dye fluo-4 AM using the Fluo-4 AM Direct™ Calcium Assay Kit and fluorescence was measured on a microplate reader. Calcium influx was triggered in all experiments using either 1 μM A23187 or 50 ng/mL DNP-BSA, as indicated. Bar graphs represent the means±SEM of the Δ in RFU's at 1 min post-A23187- or DNP-BSA-stimulation from 3 independent experiments (FIGS. 3B, 3D, 3F, 3H). Statistical analysis was performed using a one-way ANOVA with Dunnett's post-hoc test, *p<0.05, **p<0.01, ***p<0.001.
RBL-2H3, BMMC, RAW 264.7, or Jurkat cells were plated in clear-bottom, black, 96-well plates (BioExpress, Kaysville, Utah) and incubated overnight with media only or media containing IgE anti-DNP. Cells were loaded with the calcium-sensitive dye fluo-4 AM using the Fluo-4 Direct™ Calcium Assay Kit (Thermo Fisher Scientific) according to the manufacturer's instructions by incubating at 37° C. for 30 min followed by 30 min at room temperature. Prior to stimulation, baseline fluorescent readings were measured from triplicate wells in 5 s intervals for 1 min using a Synergy HT microplate reader with 485/20 nm excitation and 528/20 nm emission filters. Cells were then treated with either 1 μM A23187 or 50 ng/mL DNP-BSA prepared in calcium- and magnesium-containing or calcium- and magnesium-free HBSS with 20 mM HEPES, and fluorescence was measured in 10 s intervals for 2 min. The final concentration of ethanol was 0.25% in these assays. The average baseline fluorescence of each well was subtracted from the stimulated fluorescent values to calculate the change (Δ) in RFU's and graphed as shown.

CCCCCCC/C=C/C=C/C(=O)NCC(C)C [A15, (2E,4E)-N-Isobutyldodeca-2,4-dienamide]
percent inhibition of calcium influx (RBL-2H3 cells; 5 ng/mL DNP-BSA, at 2 minutes): 66%
percent inhibition of calcium influx (RBL-2H3 cells; 1 μM A23187, at 2 minutes): 76%
enzymatic activity of β-hex (production of chromogenic product from p-NAG) (β-hexosaminidase): not inhibited
calcium response (BMMCs; BMMCs treated with A23187): blocked the calcium response
calcium response (BMMCs; BMMCs treated with IgE anti-DNP and DNP-BSA): blocked the calcium response
calcium response to compound itself (BMMCs; BMMCs, A15 alone): did not cause a calcium response
